Experimental data reported in patent US7182954B1, “Prebiotic oligosaccharides via alternansucrase acceptor reactions” (priority 2003, dated 2007).

Assays:
[1] = test system: Bifidobacterium adolescentis 15703; assay: Oligosaccharide utilization (growth) by colonic bacteria; format: cell-based; details: 0.5% oligosaccharide preparation, anaerobic, 5 days, 37° C
[2] = test system: Bifidobacterium breve 15698; assay: as above; format: cell-based; details: 0.5% oligosaccharide preparation, anaerobic, 5 days, 37° C
[3] = test system: Bifidobacterium infantis 15697; assay: as above; format: cell-based; details: 0.5% oligosaccharide preparation, anaerobic, 5 days, 37° C
[4] = test system: Bifidobacterium longum 15707; assay: as above; format: cell-based; details: 0.5% oligosaccharide preparation, anaerobic, 5 days, 37° C
[5] = test system: Bifidobacterium pseudocatenulatum 27919; assay: as above; format: cell-based; details: 0.5% oligosaccharide preparation, anaerobic, 5 days, 37° C
[6] = test system: Bifidobacterium thermophilum 25866; assay: as above; format: cell-based; details: 0.5% oligosaccharide preparation, anaerobic, 5 days, 37° C
[7] = test system: Bifidobacterium catenulatum 27539; assay: as above; format: cell-based; details: 0.5% oligosaccharide preparation, anaerobic, 5 days, 37° C
[8] = test system: Bifidobacterium gallicum 49850; assay: as above; format: cell-based; details: 0.5% oligosaccharide preparation, anaerobic, 5 days, 37° C
[9] = test system: Bifidobacterium bifidum 29521; assay: as above; format: cell-based; details: 0.5% oligosaccharide preparation, anaerobic, 5 days, 37° C
[10] = test system: Bifidobacterium ruminantium 4939; assay: as above; format: cell-based; details: 0.5% oligosaccharide preparation, anaerobic, 5 days, 37° C
[11] = test system: Bifidobacterium boum 27917; assay: as above; format: cell-based; details: 0.5% oligosaccharide preparation, anaerobic, 5 days, 37° C
[12] = test system: Bifidobacterium adolescentis 15704; assay: as above; format: cell-based; details: 0.5% oligosaccharide preparation, anaerobic, 5 days, 37° C
[13] = test system: Bifidobacterium adolescentis 15705; assay: as above; format: cell-based; details: 0.5% oligosaccharide preparation, anaerobic, 5 days, 37° C
[14] = test system: Bifidobacterium adolescentis 15706; assay: as above; format: cell-based; details: 0.5% oligosaccharide preparation, anaerobic, 5 days, 37° C
[15] = test system: Lactobacillus casei 393; assay: as above; format: cell-based; details: 0.5% oligosaccharide preparation, anaerobic, 5 days, 37° C
[16] = test system: Lactobacillus acidophilus 4356; assay: as above; format: cell-based; details: 0.5% oligosaccharide preparation, anaerobic, 5 days, 37° C
[17] = test system: Lactobacillus GG 53103; assay: as above; format: cell-based, Lactobacillus rhamnosus GG; details: 0.5% oligosaccharide preparation, anaerobic, 5 days, 37° C
[18] = test system: Bacteroides thetaiotaomicron 29148; format: cell-based; details: 0.5% oligosaccharide preparation, anaerobic, 5 days, 37° C
[19] = test system: Escherchia coli 8739; assay: Oligosaccharide utilization (growth) by colonic bacteria; format: cell-based, Escherichia coli; details: 0.5% oligosaccharide preparation, anaerobic, 5 days, 37° C
[20] = test system: Enterobacter aerogenes 35028; assay: as above; format: cell-based; details: 0.5% oligosaccharide preparation, anaerobic, 5 days, 37° C
[21] = test system: Salmonella typhimurium 14028; assay: as above; format: cell-based, Salmonella choleraesuis (typhimurium); details: 0.5% oligosaccharide preparation, anaerobic, 5 days, 37° C
[22] = test system: Clostridium perfringens 13124; format: cell-based; details: 0.5% oligosaccharide preparation, anaerobic, 5 days, 37° C
[23] = test system: alternansucrase; assay: Comparison of acceptor strengths with alternansucrase, relative amount of alternan formed; details: for Alternan (Rel. %): 45 μL 10% (w/v) sucrose, 45 μL 10% (w/v) acceptor, 10 μL alternansucrase, pH 5.4, room temperature, less alternan = stronger acceptor; for acceptor strength for alternansucrase, in words: text summary of Table I

## O=C[C@H](O)[C@@H](O)[C@H](O)[C@H](O)CO [D-glucose]
[1]
  Growth (OD600 nm), Bifidobacterium adolescentis 15703: +++ (OD600 nm ≧ 0.60, high growth)
[2]
  Growth (OD600 nm), Bifidobacterium breve 15698: +++ (OD600 nm ≧ 0.60, high growth)
[3]
  Growth (OD600 nm), Bifidobacterium infantis 15697: +++ (OD600 nm ≧ 0.60, high growth)
[4]
  Growth (OD600 nm), Bifidobacterium longum 15707: +++ (OD600 nm ≧ 0.60, high growth)
[5]
  Growth (OD600 nm), Bifidobacterium pseudocatenulatum 27919: +++ (OD600 nm ≧ 0.60, high growth)
[6]
  Growth (OD600 nm), Bifidobacterium thermophilum 25866: +++ (OD600 nm ≧ 0.60, high growth)
[7]
  Growth (OD600 nm), Bifidobacterium catenulatum 27539: +++ (OD600 nm ≧ 0.60, high growth)
[8]
  Growth (OD600 nm), Bifidobacterium gallicum 49850: +++ (OD600 nm ≧ 0.60, high growth)
[9]
  Growth (OD600 nm), Bifidobacterium bifidum 29521: +++ (OD600 nm ≧ 0.60, high growth)
[10]
  Growth (OD600 nm), Bifidobacterium ruminantium 4939: +++ (OD600 nm ≧ 0.60, high growth)
[11]
  Growth (OD600 nm), Bifidobacterium boum 27917: +++ (OD600 nm ≧ 0.60, high growth)
[12]
  Growth (OD600 nm), Bifidobacterium adolescentis 15704: +++ (OD600 nm ≧ 0.60, high growth)
[13]
  Growth (OD600 nm), Bifidobacterium adolescentis 15705: +++ (OD600 nm ≧ 0.60, high growth)
[14]
  Growth (OD600 nm), Bifidobacterium adolescentis 15706: +++ (OD600 nm ≧ 0.60, high growth)
[15]
  Growth (OD600 nm), Lactobacillus casei 393: +++ (OD600 nm ≧ 0.60, high growth)
[16]
  Growth (OD600 nm), Lactobacillus acidophilus 4356: +++ (OD600 nm ≧ 0.60, high growth)
[17]
  Growth (OD600 nm), Lactobacillus GG 53103: +++ (OD600 nm ≧ 0.60, high growth)
[18]
  Growth (OD600 nm), Bacteroides thetaiotaomicron 29148: ++ (OD600 nm 0.31–0.59, medium growth)
[19]
  Growth (OD600 nm), Escherchia coli 8739: +++ (OD600 nm ≧ 0.60, high growth)
[20]
  Growth (OD600 nm), Enterobacter aerogenes 35028: +++ (OD600 nm ≧ 0.60, high growth)
[21]
  Growth (OD600 nm), Salmonella typhimurium 14028: ++ (OD600 nm 0.31–0.59, medium growth)
[22]
  Growth (OD600 nm), Clostridium perfringens 13124: +++ (OD600 nm ≧ 0.60, high growth)
[23]
  Alternan (Rel. %): 53 Rel. %

## OC[C@H]1O[C@@](CO)(O[C@H]2O[C@H](CO[C@H]3O[C@H](CO)[C@@H](O)[C@H](O)[C@H]3O)[C@@H](O)[C@H](O)[C@H]2O)[C@@H](O)[C@@H]1O [theanderose]
[23]
  Alternan (Rel. %): 42 Rel. %

## O=C(CO)[C@@H](O[C@H]1O[C@H](CO)[C@@H](O)[C@H](O)[C@H]1O)[C@H](O)[C@H](O)CO [turanose]
[23]
  Alternan (Rel. %): 57 Rel. %

## OC[C@@H](O)[C@H](O)[C@@H](O)CO [xylitol]
[23]
  Alternan (Rel. %): 97 Rel. %

## OC[C@H]1O[C@H](O[C@H]2O[C@H](CO)[C@@H](O)[C@H](O)[C@H]2O)[C@H](O)[C@@H](O)[C@@H]1O [α,α-trehalose]
[23]
  Alternan (Rel. %): 102 Rel. %
  acceptor strength for alternansucrase, in words: not an acceptor

## CO[C@H]1O[C@H](CO)[C@H](O)[C@H](O)[C@H]1O [α-methyl-D-galactoside, α-methyl-D-galactopyranoside]
[23]
  Alternan (Rel. %): 73 Rel. %

## CO[C@H]1O[C@H](CO)[C@@H](O)[C@H](O)[C@H]1O [α-methyl-D-glucoside, α-methyl-D-glucopyranoside]
[23]
  Alternan (Rel. %): 20 Rel. %

## CO[C@H]1O[C@H](CO)[C@@H](O)[C@H](O)[C@@H]1O [α-methyl-D-mannoside, α-methyl-D-mannopyranoside]
[23]
  Alternan (Rel. %): 70 Rel. %

## CCCCCCCCCCCCO[C@@H]1O[C@H](CO)[C@@H](O[C@H]2O[C@H](CO)[C@@H](O)[C@H](O)[C@H]2O)[C@H](O)[C@H]1O [β-dodecyl maltoside]
[23]
  Alternan (Rel. %): 83 Rel. %

## CO[C@@H]1O[C@H](CO)[C@H](O)[C@H](O)[C@H]1O [β-methyl-D-galactoside, β-methyl-D-galactopyranoside]
[23]
  Alternan (Rel. %): 94 Rel. %

## CO[C@@H]1O[C@H](CO)[C@@H](O)[C@H](O)[C@H]1O [β-methyl-D-glucoside]
[23]
  Alternan (Rel. %): 60 Rel. %

## CO[C@@H]1O[C@H](CO)[C@@H](O)[C@H](O)[C@@H]1O [β-methyl-D-mannoside]
[23]
  Alternan (Rel. %): 89 Rel. %

## COC1OCC(O)C(O)C1O [β-methyl-D-xyloside]
[23]
  Alternan (Rel. %): 96 Rel. %

## CCCCCCCCO[C@@H]1O[C@H](CO)[C@@H](O)[C@H](O)[C@H]1O [β-octyl D-glucoside, β-octyl-D-glucopyranoside]
[23]
  Alternan (Rel. %): 52 Rel. %

## gentiobiose
[23]
  Alternan (Rel. %): 25 Rel. %
  acceptor strength for alternansucrase, in words: surprisingly good acceptor

## maltotriose
[23]
  Alternan (Rel. %): 65 Rel. %
